Measurements: US20190167676A1, “METHODS FOR IMPROVING RESISTANCE TO SKELETAL MUSCLE FATIGUE” (Cytokinetics, Inc., priority 2012, published 2019)

What was measured:
[1] = test system: mouse EDL muscle; settings: cited from earlier work
[2] = test system: healthy rats; experiment: Rotarod running assay; type: in vivo, rat; settings: control treatments by oral gavage: 300 mg/kg (60 min), caffeine 10 mg/kg (30 min), phosphoserine 1000 mg/kg (24 hours prior)
Procedure: Female Sprague Dawley rats (210-260 g) were obtained from Charles River Laboratories and acclimated in the test facility for a minimum of six days prior to the start of the study. All rats were trained the day prior to compound administration. Training consisted of placing the rats on the rotating drum (rod), starting at a low constant speed (10 RPM). The rats were acclimated to walk on the drum for 5 minutes before resting. A second training session of an increasing speed from 14-16 RPM was initiated after all rats in the experimental group had finished the first training session. […] On the day of the experiment animals were dosed thirty minutes prior to start of test. The test began with a 5 minute primer session, whereby animals were run at an increasing speed from 14-16 RPM over 5 minutes. Rats were then run at a constantly accelerating rate from 12 RPM to 25 RPM over the course of 10 minutes. […] Time to fall was recorded, with the test being terminated at 900 seconds. Compound A was administered via oral gavage 30 minutes prior to assessment. Each dose was formulated as a suspension containing 0.2% Tween 80, 0.5% HPMC and water. Dose volume was 5 mL/kg. Vehicle (0.2% Tween 80, 0.5% HPMC and water) was administered similarly. Control treatments were chosen based on association with amelioration of central fatigue (caffeine, Davis 2003), muscular fatigue (creatine, Boyadjiev, 2007) and dual central/muscular fatigue (phosphoserine, […] 1976).

[3] = test system: rat plantarflexor muscles; experiment: Rat plantar flexor force and power in situ; type: in vivo
Excerpt: Rats were placed under anesthesia using isoflurane and the sciatic nerve of the experimental leg exposed. The rat was then placed on the platform of an Aurora in-situ muscle analysis rig (806C), maintained at body temperature via a circulating water system. The knee was immobilized in a clamp between two sharpened screws and the foot attached securely to the footplate of a force transducer (Aurora Scientific, Ontario, Canada) using laboratory tape. The muscle was stimulated directly via the sciatic nerve. For isolation of the nerve, a 1 cm incision was made at the upper thigh and the overlying muscle was dissected to expose an approximate 5 mm stretch of the sciatic nerve. This was then dissected free of surrounding connective tissue and a pair of stainless steel needle electrodes (0.10 mm) were hooked around the exposed nerve. The peroneal branch was severed to remove innervation to the plantar-extensor muscle groups. Muscle contractile properties were assessed by applying an electrical current to the nerve and recording the force generated by the muscle via a servomotor. Isokinetic contractile properties were assessed as force generated during a pre-programmed movement of the footplate. Footplate movements were 0.7 radians in size ([…]).
Solutions of Compound A (50% PEG300/10% EtOH/40% cavitron formulation) were administered via a femoral vein catheter as a single slow bolus over a 2 min period, with a maximal dosage volume of 5 ml/Kg. During the experiment, blood was drawn via the tail vein for compound concentration analysis. At the end of each assay, the length and weight of the muscle was recorded, and measured force normalized to the mass of the muscle (N/g).
Compound A increased force generation throughout the curve to generate a total of 55% more work over the 300 second period, while maintaining a similar profile to that of the vehicle.
The same protocol was repeated with a second skeletal muscle troponin activator, 1-((1R)-1-methylpropyl)-6-chloro-7-pyrazolylimidazo[4,5-b]pyridin-2-ol (Compound B). Compound B and analogous skeletal muscle troponin activators are disclosed in U.S. Pat. No. 7,989,469. […] 0.7 radian displacement and stimulation frequency calculated to provide 50% of maximum isokinetic tension. Compound B maintained force generation throughout the curve, at almost 50% of vehicle stimulation frequency, to generate the same total work over the 300 second period, while maintaining a similar profile to that of the vehicle.

Cn1c(=O)c2c(ncn2C)n(C)c1=O [caffeine, reference compound]
tetanic tension and muscle fatigue ([1]; repeated 60 Hz stimulation over 6 minutes): increased initial tetanic EDL tension but accelerated and accentuated muscle fatigue | running time vs vehicle [2]: no significant difference

N[C@@H](COP(=O)(O)O)C(=O)O [phosphoserne, phosphoserine, reference compound]
running time vs vehicle [2]: no significant difference

CN(CC(=O)O)C(=N)N [creatine, reference compound]
running time vs vehicle [2]: no significant difference

1-((1R)-1-methylpropyl)-6-chloro-7-pyrazolylimidazo[4,5-b]pyridin-2-ol [Compound B]
isokinetic force frequency relationship ([3]; at 3.1 radians/s): increased in the submaximal range in a dose dependent manner | force-velocity relationship ([3]; at 30 Hz): increased across all velocities in a dose and velocity dependent manner | power output ([3]; corresponding to force velocities at 30 Hz): dose-dependent increase | isometric force frequency relationship ([3]; in situ): increased in the submaximal range in a dose dependent manner | stimulation frequency to generate the same total work ([3]; isokinetic fatigue protocol at 50% of maximum isokinetic tension, 300 second period): ~50 % of vehicle stimulation frequency | more total work over the 300 second period ([3]; isokinetic fatigue protocol, 1 flexion per second at 3.1 radians/s, 30 Hz, vs vehicle): 105%

O=C1CN(/N=C/c2ccc(-c3ccc([N+](=O)[O-])cc3)o2)C(O)=N1 [dantrolene]
tetanic tension and fatigue development ([1]; 20 μM): decreased early tetanic tension yet abolished overall fatigue development
